Data published in the NIST ThermoML archive (doi:10.1021/je9005689).
Numbers after ± are expanded uncertainties.

Legend:
[1] = Molar enthalpy of transition or fusion; conditions: Crystal; DSC
[2] = Crystal; DTA

Molar enthalpy of transition or fusion [1]: 17.7 ± 0.42 kJ/mol | Normal melting temperature [2]: 69.00 ± 0.5 °C
SMILES: COc1cnc(Cl)nc1Cl [2,4-dichloro-5-methoxypyrimidine]
